{"source": "patent EP0076622A1", "about": "“Anthelmintics” (BEECHAM GROUP PLC, priority 1981, dated 1983)", "tested_on": "Nematospiroides dubius", "experiment": "Oral activity against experimental infections of Nematospiroides dubius in the mouse (worm numbers of treated vs untreated control animals)", "assay_type": "in vivo", "settings": "calculated from worm numbers of treated and control animals; for inhibition in vivo at 200 mg/kg / inhibition in vivo at 100 mg/kg: Heligmosomoides polygyrus, po", "description": "The oral activity of the following compounds, against experimental infections of Nematospiroides dubius in the mouse, was calculated from a comparison of the worm numbers of treated and control (untreated) animals.", "data": [{"molecule": "CSC(=Nc1cccc(C2CN3CCSC3=N2)c1)Nc1ccccc1", "note": "(stereo not shown) [Example 13]", "values": [{"measurement": "inhibition in vivo at 200 mg/kg", "setting": "Dose 200 mg/kg (p.o.)", "value": 99, "unit": "%"}]}, {"molecule": "CSC(=Nc1cccc(C2CN3CCSC3=N2)c1)Nc1ccc(F)cc1", "note": "(stereo not shown) [Example 14, S-Methyl-N-[4-fluorophenyl]-N'-[3-(6-{2,3,5,6-tetra-hydroimidazo [2,1-b]thiazolyl})phenyl]isothiourea]", "values": [{"measurement": "inhibition in vivo at 200 mg/kg", "setting": "Dose 200 mg/kg (p.o.)", "value": 100, "unit": "%"}]}, {"molecule": "CSC(=Nc1cccc(C2CN3CCSC3=N2)c1)Nc1cccc(F)c1", "note": "(stereo not shown) [Example 15, S-Methyl-N-[3-fluorophenyl]-N'-[3-(6-{2,3,5,6-tetra-hydroimidazo[2,1-b]thiazolyl})phenyl]isothiourea]", "values": [{"measurement": "inhibition in vivo at 100 mg/kg", "setting": "Dose 100 mg/kg (p.o.)", "value": 100, "unit": "%"}, {"measurement": "inhibition in vivo at 200 mg/kg", "setting": "Dose 200 mg/kg (p.o.)", "value": 100, "unit": "%"}]}, {"molecule": "CSC(=Nc1cccc(C2CN3CCSC3=N2)c1)Nc1ccc(Cl)cc1", "note": "(stereo not shown) [Example 17, S-Methyl-N-[4-chlorophenyl]-N'-[3-(6-{2,3,5,6-tetra-hydroimidazo[2,1-b]thiazolyl})phenyl]isothiourea]", "values": [{"measurement": "inhibition in vivo at 200 mg/kg", "setting": "Dose 200 mg/kg (p.o.)", "value": 88, "unit": "%"}]}, {"molecule": "CSC(=Nc1cccc(C2CN3CCSC3=N2)c1)Nc1ccc(C)cc1", "note": "(stereo not shown) [Example 19, S-Methyl-N-[4-methylphe_nyl]-N'-[3-(6-{2,3,5,6-tetra-hydroimidazo[2,1-b]thiazolyl})phenyl]isothiourea]", "values": [{"measurement": "inhibition in vivo at 200 mg/kg", "setting": "Dose 200 mg/kg (p.o.)", "value": 0, "unit": "%"}]}, {"molecule": "CSC(=Nc1cccc(C2CN3CCSC3=N2)c1)Nc1cccc(Cl)c1", "note": "(stereo not shown) [Example 20]", "values": [{"measurement": "inhibition in vivo at 100 mg/kg", "setting": "Dose 100 mg/kg (p.o.)", "value": 87, "unit": "%"}, {"measurement": "inhibition in vivo at 200 mg/kg", "setting": "Dose 200 mg/kg (p.o.)", "value": 100, "unit": "%"}]}, {"molecule": "CCSC(=Nc1cccc(C2CN3CCSC3=N2)c1)Nc1ccccc1", "note": "(stereo not shown) [Example 22, S-Ethyl-N-phenyl-N'-[3-(6{2,3,5,6-tetrahydroimidazo-[2,1-b]thiazolyl})phenyl]isothiourea]", "values": [{"measurement": "inhibition in vivo at 200 mg/kg", "setting": "Dose 200 mg/kg (p.o.)", "value": 92, "unit": "%"}]}, {"molecule": "CSC(=Nc1cccc(C2CN3CCSC3=N2)c1)Nc1ccc(C)c(C)c1", "note": "(stereo not shown) [Example 56]", "values": [{"measurement": "inhibition in vivo at 200 mg/kg", "setting": "Dose 200 mg/kg (p.o.)", "value": 0, "unit": "%"}]}, {"molecule": "CSC(=Nc1cccc(C2CN3CCSC3=N2)c1)Nc1cccc(C)c1", "note": "(stereo not shown) [Example 57]", "values": [{"measurement": "inhibition in vivo at 100 mg/kg", "setting": "Dose 100 mg/kg (p.o.)", "value": 40, "unit": "%"}, {"measurement": "inhibition in vivo at 200 mg/kg", "setting": "Dose 200 mg/kg (p.o.)", "value": 100, "unit": "%"}]}, {"molecule": "CSC(=Nc1cccc(C2CN3CCSC3=N2)c1)Nc1cccc([N+](=O)[O-])c1", "note": "(stereo not shown) [Example 58]", "values": [{"measurement": "inhibition in vivo at 100 mg/kg", "setting": "Dose 100 mg/kg (p.o.)", "value": 95, "unit": "%"}, {"measurement": "inhibition in vivo at 200 mg/kg", "setting": "Dose 200 mg/kg (p.o.)", "value": 95, "unit": "%"}]}, {"molecule": "CSC(=Nc1cccc(C2CN3CCSC3=N2)c1)NCc1ccccc1", "note": "(stereo not shown) [Example 75]", "values": [{"measurement": "inhibition in vivo at 200 mg/kg", "setting": "Dose 200 mg/kg (p.o.)", "value": 54, "unit": "%"}]}, {"molecule": "CSC(=Nc1cccc(C2CN3CCSC3=N2)c1)NC1CCCCC1", "note": "(stereo not shown) [Example 76]", "values": [{"measurement": "inhibition in vivo at 200 mg/kg", "setting": "Dose 200 mg/kg (p.o.)", "value": 15, "unit": "%"}]}, {"molecule": "COc1ccc(NC(=Nc2cccc(C3CN4CCSC4=N3)c2)SC)cc1", "note": "(stereo not shown) [p-C6H4OCH3]", "values": [{"measurement": "inhibition in vivo at 200 mg/kg", "setting": "Dose 200 mg/kg (p.o.)", "value": 59, "unit": "%"}]}, {"molecule": "S-Methyl-N-[3,4-dichlorophenyl]-N'-[3-(6{2,3,5,6-tetra- hydroimidazo[2,1-b]thiazolyl}) phenyl]isothiourea [Example 18]", "values": [{"measurement": "Activity %", "setting": "Dose 200 mg/kg (p.o.)", "value": 34, "unit": "%"}]}, {"molecule": "S-Methyl-N-[4-acetylphenyl]-N'-[3-(6-{2,3,5,6-tetra- hydroimidazo-[2,1-b]thiazolyl})phenyl]isothiourea [Example 25]", "values": [{"measurement": "Activity %", "setting": "Dose 100 mg/kg (p.o.)", "value": 93, "unit": "%"}, {"measurement": "Activity %", "setting": "Dose 200 mg/kg (p.o.)", "value": 100, "unit": "%"}]}, {"molecule": "S-Methyl-N-[4-cyanophenyl]-N'-[3-(6-{2,3.5,6-tetra- hydroimidazo[2,1-b]thiazolyl})phenyl]isothiourea [Example 24]", "values": [{"measurement": "Activity %", "setting": "Dose 100 mg/kg (p.o.)", "value": 99, "unit": "%"}, {"measurement": "Activity %", "setting": "Dose 200 mg/kg (p.o.)", "value": 100, "unit": "%"}]}, {"molecule": "S-Methyl-N-[4-nitrophenyl]-N'-[3-(6-{2,3,5,6-tetra- hydroimidaza[2,1-b]thiazolyl})phenyl]isothiourea [Example 16]", "values": [{"measurement": "Activity %", "setting": "Dose 50 mg/kg (p.o.)", "value": 95, "unit": "%"}, {"measurement": "Activity %", "setting": "Dose 100 mg/kg (p.o.)", "value": 100, "unit": "%"}, {"measurement": "Activity %", "setting": "Dose 200 mg/kg (p.o.)", "value": 100, "unit": "%"}]}]}
